The subject of one experiment is rVSV-EBOV-GP. In words: organism not typed. Type of experiment: cell-based, vesicular stomatitis virus expressing EBOV glycoprotein.
Experiment [1] deals with Ebola virus. In words: microbe, parasite or virus in culture. Type of experiment: cell-based. The conditions noted are these: for EC50: Zaire ebolavirus, Vero, read-out: EC50 of Ebola infection.
The subject of experiment [2] is Ebola virus. Type of experiment: cell-based.
In experiment [3] the test system is Ebola virus. Set-up: species or system mice. The conditions noted are these: mouse, in vivo.

By IC50 is commonly meant the point on the concentration scale where inhibition reaches its midpoint. Broadly, the EC50 is the concentration giving half of the maximal effect. Take `CCN(CC)CCNC(=O)c1c(C)[nH]c(/C=C2\C(=O)Nc3ccc(F)cc32)c1C` [sunitinib]: the IC50 with rVSV-EBOV-GP (Vero, 20 h, read-out: IC50 of viral entry inhibition) stood at 6.15 µM. Besides, in the experiment on Ebola virus [1], the EC50 came to 2.25 µM.
Regarding `C#Cc1cccc(Nc2ncnc3cc(OCCOC)c(OCCOC)cc23)c1` [erlotinib], in the experiment with Ebola virus [2], the “Ebola replication in cells” value was “reduces” and the “percentage of Ebola positive cells versus concentration (inhibition of Ebola)” value is “inhibition of Ebola by erlotinib in a dose-dependent manner”. For the same molecule, the Ebola entry entry in the experiment with rVSV-EBOV-GP is on record as “reduced Ebola entry in a dose-dependent manner”. Further, in the experiment on Ebola virus [1], the “overall infection with Ebola virus” value was “dose-dependent reduction” and the concentration for a half-maximal effect (EC50) came to 4.22 µM. Also, the “mortality of Ebola infected mice” value in the experiment with Ebola virus [3] is “reduces”. In addition, the percentage survival with Ebola virus [3] (30 mg/kg) was found to be 100%.
